Values after ≈ are worked out from the molar mass of the structure shown.
Experiments:
[1] = tested on: Pseudomonas aeruginosa No. 12; assay: Systemic infection in mice; format: in vivo; details: po, 168 h, mice, p.o. at infection and 6 hours later, P. aeruginosa No. 12, 7 days
Procedure: (§1) The activity of the compounds according to the invention against systemic infections in mice, caused by Staphylococcus 50,774, Streptococcus pyogenes A 65, Pseudomonas aeruginosa No. 12 and Escherichia coli P 5101, has been studied.
(§2) The infections were set up by intraperitoneal injection of a suspension of the bacterial culture corresponding to the germ studied. The products were administered orally at the time of injection, and 6 hours later. […] Aureus and for 7 days for the other germs.
(§3) Oxolinic acid was used as the reference substance.

Staph. aureus 50,774 [2] = assay: Systemic infection in mice; format: in vivo; details: Staphylococcus aureus, po, 336 h, mice, p.o. at infection and 6 hours later, Staph. aureus 50,774, 14 days
Procedure: as §1, §2, §3

Strept. pyogenes A. 65 [3] = assay: Systemic infection in mice; format: in vivo; details: Streptococcus pyogenes, po, 168 h, mice, p.o. at infection and 6 hours later, Strept. pyogenes A. 65, 7 days
Procedure: as §1, §2, §3

Escherichia coli P 5101 [4] = assay: Systemic infection in mice; format: in vivo; details: P5101, po, 168 h, mice, p.o. at infection and 6 hours later, E. coli P 5101, 7 days
Procedure: as §1, §2, §3

Salm. typhi 0901 = assay: microbe, parasite or virus in culture; format: cell-based; details: Salmonella enterica, 18 h; Table III; Salm. typhi 0901
Procedure: (§4) After sterilisation at 120° C., the pH was 6.8.
(§5) The minimum inhibitory concentrations (M.I.C.) were determined by dilution of the test compounds in this mixture, the concentration ranging from 0.05 to 100 μg/cm^3 in a geometric progression with a factor of 2.
(§6) The inoculation of the dishes was carried out by means of a multiple inoculator with 10^-3 dilutions of 18 hour old broth cultures.
(§7) The dishes were placed in an oven at 37° C. and the readings were taken afer an incubation time of 18 hours. The M.I.C. was taken as the lowest concentration which inhibited a culture.

[5] = tested on: Pseudomonas aeruginosa No. 12; assay: M.I.C. for germ used in experimental infection; format: cell-based; details: 18 h, Table 4, P. aeruginosa No. 12, read-out: M.I.C.
Procedure: as §4, §5, §6, §7

Staph. aureus 50,774 [6] = assay: M.I.C. for germ used in experimental infection; format: cell-based; details: Staphylococcus aureus, 18 h; Table 4; Staph. aureus 50,774; read-out: M.I.C.
Procedure: as §4, §5, §6, §7

Strept. pyogenes A. 65 [7] = assay: M.I.C. for germ used in experimental infection; format: cell-based; details: Streptococcus pyogenes, 18 h; Table 4; Strept. pyogenes A. 65; read-out: M.I.C.
Procedure: as §4, §5, §6, §7

Escherichia coli P 5101 [8] = assay: M.I.C. for germ used in experimental infection; format: cell-based; details: P5101, 18 h, Table 4, E. coli P 5101, read-out: M.I.C.
Procedure: as §4, §5, §6, §7

Staph. 9.144 = assay: M.I.C. in vitro, nutrient agar dilution; format: cell-based; details: 18 h; Table III; Staph. 9.144; read-out: M.I.C.
Procedure: as §4, §5, §6, §7

Pr. mirabilis Nig = assay: M.I.C. in vitro, nutrient agar dilution; format: cell-based; details: Proteus mirabilis, 18 h; Table III; Pr. mirabilis Nig; read-out: M.I.C.
Procedure: as §4, §5, §6, §7

Arizona 6.211 = assay: M.I.C. in vitro, nutrient agar dilution; format: cell-based; details: 18 h; Table III; Arizona 6.211; read-out: M.I.C.
Procedure: as §4, §5, §6, §7

S. oranienburg 1066 = assay: M.I.C. in vitro, nutrient agar dilution; format: cell-based; details: Salmonella enterica, 18 h; Table III; S. oranienburg 1066; read-out: M.I.C.
Procedure: as §4, §5, §6, §7

B. subtilis = assay: M.I.C. in vitro, nutrient agar dilution; format: cell-based; details: Bacillus subtilis, 18 h; Table III; B. Subtilis; read-out: M.I.C.
Procedure: as §4, §5, §6, §7

Strepto D.M. 19 = assay: M.I.C. in vitro, nutrient agar dilution; format: cell-based; details: 18 h; Table III; Strepto D.M. 19; read-out: M.I.C.
Procedure: as §4, §5, §6, §7

Pr. vulgaris 12-53 = assay: M.I.C. in vitro, nutrient agar dilution; format: cell-based; details: Proteus vulgaris, 1253, 18 h; Table III; Pr. vulgaris 12-53; read-out: M.I.C.
Procedure: as §4, §5, §6, §7

Klebs. pneum. 10.031 = assay: M.I.C. in vitro, nutrient agar dilution; format: cell-based; details: 18 h; Table III; Klebs. pneum. 10.031; read-out: M.I.C.
Procedure: as §4, §5, §6, §7

S. enteritidis Danysz = assay: M.I.C. in vitro, nutrient agar dilution; format: cell-based; details: Salmonella enterica, 18 h; Table III; S. enteritidis Danysz; read-out: M.I.C.
Procedure: as §4, §5, §6, §7

Ps. aeruginosa A.22 = assay: M.I.C. in vitro, nutrient agar dilution; format: cell-based; details: Pseudomonas aeruginosa, 18 h; Table III; Ps. aeruginosa A.22; read-out: M.I.C.
Procedure: as §4, §5, §6, §7

Esch. coli 95 I.S.M. = assay: M.I.C. in vitro, nutrient agar dilution; format: cell-based; details: Escherichia coli, 18 h; Table III; Esch. coli 95 I.S.M.; read-out: M.I.C.
Procedure: as §4, §5, §6, §7

Strepto A 561 = assay: M.I.C. in vitro, nutrient agar dilution; format: cell-based; details: 18 h; Table III; Strepto A 561
Procedure: as §4, §5, §6, §7

Sh. sonnei I.P.S. = assay: M.I.C. in vitro, nutrient agar dilution; format: cell-based; details: Shigella sonnei, 18 h
Procedure: as §4, §5, §6, §7

Pr. morganii A.236 = assay: M.I.C. in vitro, nutrient agar dilution; format: cell-based; details: Morganella morganii, 18 h; Table III; Pr. morganii A. 236; read-out: M.I.C.
Procedure: as §4, §5, §6, §7

Staph. 209 P = assay: M.I.C. in vitro, nutrient agar dilution; format: cell-based; details: 18 h; Table III; Staph. 209 P; read-out: M.I.C.
Procedure: as §4, §5, §6, §7

Providentia 0223 = assay: M.I.C. in vitro, nutrient agar dilution; format: cell-based; details: 18 h; Table III; Providentia 0223; read-out: M.I.C.
Procedure: as §4, §5, §6, §7

Serratia = assay: M.I.C. in vitro, nutrient agar dilution; format: cell-based; details: 18 h, Table III, read-out: M.I.C.
Procedure: as §4, §5, §6, §7

Esch. coli 111 B4 = assay: M.I.C. in vitro, nutrient agar dilution; format: cell-based; details: Escherichia coli, 18 h; Table III; Esch. coli 111 B4
Procedure: as §4, §5, §6, §7

Esch. coli 54.127 O.M.S. = assay: M.I.C. in vitro, nutrient agar dilution; format: cell-based; details: Escherichia coli, 18 h; Table III; Esch. coli 54.127 O.M.S.; read-out: M.I.C.
Procedure: as §4, §5, §6, §7

Bord. bronchis. 4.617 = assay: M.I.C. in vitro, nutrient agar dilution; format: cell-based; details: 18 h; Table III; Bord. bronchis. 4.617; read-out: M.I.C.
Procedure: as §4, §5, §6, §7

Ps. aeruginosa 72.345 = assay: M.I.C. in vitro, nutrient agar dilution; format: cell-based; details: Pseudomonas aeruginosa, 18 h; Table III; Pd. aeruginosa 72.345; read-out: M.I.C.
Procedure: as §4, §5, §6, §7

## CCn1cc(C(=O)O)c(=O)c2cc(F)c(N3CCNCC3)cc21 [Example 22, 1-Ethyl-6-fluoro-4-oxo-7-piperazinyl-1,4-dihydro-quinoline-3-carboxylic acid]
[1]; read-out: ED50
  ED50: 17.7 mg/kg
[1]; read-out: ED90
  ED90: 25.9 mg/kg
Staph. aureus 50,774 [2]; read-out: ED50
  ED50: 20.6 mg/kg
Staph. aureus 50,774 [2]; read-out: ED90
  ED90: 44.1 mg/kg
Strept. pyogenes A. 65 [3]; read-out: ED50
  ED50: > 100 mg/kg
Strept. pyogenes A. 65 [3]; read-out: ED90
  ED90: > 100 mg/kg
Escherichia coli P 5101 [4]; read-out: ED50
  ED50: 4 mg/kg
Escherichia coli P 5101 [4]; read-out: ED90
  ED90: 10.4 mg/kg
Salm. typhi 0901
  MIC: 0.05 to 0.2 µg/mL (≈ 0.157 to 0.626 µM)
[5]
  MIC: 0.78 µg/mL (≈ 2.44 µM)
Staph. aureus 50,774 [6]
  MIC: 0.78 µg/mL (≈ 2.44 µM)
Strept. pyogenes A. 65 [7]
  MIC: 1.56 µg/mL (≈ 4.89 µM)
Escherichia coli P 5101 [8]
  MIC: 0.1 µg/mL (≈ 0.313 µM)
Staph. 9.144
  MIC: 0.2 to 0.4 µg/mL (≈ 0.626 to 1.25 µM)
Pr. mirabilis Nig
  MIC: 0.1 to 0.2 µg/mL (≈ 0.313 to 0.626 µM)
Arizona 6.211
  MIC: 0.2 µg/mL (≈ 0.626 µM)
S. oranienburg 1066
  MIC: 6.2 µg/mL (≈ 19.4 µM)
B. subtilis
  MIC: 0.2 µg/mL (≈ 0.626 µM)
Strepto D.M. 19
  MIC: 1.6 to 3.1 µg/mL (≈ 5.01 to 9.71 µM)
Pr. vulgaris 12-53
  MIC: 0.05 µg/mL (≈ 0.157 µM)
Klebs. pneum. 10.031
  MIC: 0.1 to 0.2 µg/mL (≈ 0.313 to 0.626 µM)
S. enteritidis Danysz
  MIC: 0.2 µg/mL (≈ 0.626 µM)
Ps. aeruginosa A.22
  MIC: 0.4 to 0.8 µg/mL (≈ 1.25 to 2.51 µM)
Esch. coli 95 I.S.M.
  MIC: 0.2 µg/mL (≈ 0.626 µM)
Strepto A 561
  MIC: 50 µg/mL (≈ 157 µM)
Sh. sonnei I.P.S.
  MIC: 0.01 to 0.02 µg/mL (≈ 0.0313 to 0.0626 µM)
Pr. morganii A.236
  MIC: 0.05 µg/mL (≈ 0.157 µM)
Staph. 209 P
  MIC: 0.2 to 0.4 µg/mL (≈ 0.626 to 1.25 µM)
Providentia 0223
  MIC: 0.8 to 1.6 µg/mL (≈ 2.51 to 5.01 µM)
Serratia
  MIC: 1 to 6.2 µg/mL (≈ 3.13 to 19.4 µM)
Esch. coli 111 B4
  MIC: 0.1 to 0.2 µg/mL (≈ 0.313 to 0.626 µM)
Esch. coli 54.127 O.M.S.
  MIC: 0.2 µg/mL (≈ 0.626 µM)
Bord. bronchis. 4.617
  MIC: 6.25 to 12.5 µg/mL (≈ 19.6 to 39.1 µM)
Ps. aeruginosa 72.345
  MIC: 0.4 to 0.8 µg/mL (≈ 1.25 to 2.51 µM)
